According to ChEMBL document CHEMBL1201862, “PubChem BioAssay data set” (2004):
Calls of active or inactive are those of the source.

What was measured:
Bcl-2-related protein A1 [1] = molecular target: T1, Bcl-2-related protein A1 (Mus musculus, UniProt Q07440); assay: Bfl-1 binding inhibitors, SAR follow-up, biochemical, fluorescence polarization (AID 1070)
T1 sequence (Q07440 whole entry): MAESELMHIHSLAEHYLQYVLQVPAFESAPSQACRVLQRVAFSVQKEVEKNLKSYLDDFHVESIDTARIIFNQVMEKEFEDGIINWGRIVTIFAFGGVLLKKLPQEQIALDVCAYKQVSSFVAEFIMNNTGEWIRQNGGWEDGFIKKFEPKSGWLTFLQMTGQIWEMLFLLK

Bcl-2-related protein A1 [2] = molecular target: T1, Bcl-2-related protein A1; assay: Bfl-1 inhibitors blocking BH3 peptide binding, confirmation, biochemical, TR-FRET, mouse Bfl-1 (AID 621);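 note: TR-FRET binding of GST-Bfl-1 to FITC-labelled Bid peptide via terbium antibody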
[3] = molecular target: Glyceraldehyde-3-phosphate dehydrogenase (Homo sapiens, UniProt P04406)
Sequence of Glyceraldehyde-3-phosphate dehydrogenase (P04406 whole entry): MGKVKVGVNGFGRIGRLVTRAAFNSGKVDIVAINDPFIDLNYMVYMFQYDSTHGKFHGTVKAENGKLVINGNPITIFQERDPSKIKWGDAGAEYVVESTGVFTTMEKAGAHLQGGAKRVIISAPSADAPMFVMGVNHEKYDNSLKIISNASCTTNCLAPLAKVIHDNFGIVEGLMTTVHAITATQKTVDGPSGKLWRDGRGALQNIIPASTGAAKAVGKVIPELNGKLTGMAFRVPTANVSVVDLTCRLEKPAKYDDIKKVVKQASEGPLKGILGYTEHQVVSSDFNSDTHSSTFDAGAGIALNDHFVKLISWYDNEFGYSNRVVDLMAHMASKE

NADPH oxidase 1 = molecular target: T2, NADPH oxidase 1 (Homo sapiens, UniProt Q9Y5S8); assay: Luminescence-based cell-based dose response assay to identify inhibitors of NADPH oxidase 1 (NOX1).; assay type: functional
T2 sequence (Q9Y5S8 whole entry): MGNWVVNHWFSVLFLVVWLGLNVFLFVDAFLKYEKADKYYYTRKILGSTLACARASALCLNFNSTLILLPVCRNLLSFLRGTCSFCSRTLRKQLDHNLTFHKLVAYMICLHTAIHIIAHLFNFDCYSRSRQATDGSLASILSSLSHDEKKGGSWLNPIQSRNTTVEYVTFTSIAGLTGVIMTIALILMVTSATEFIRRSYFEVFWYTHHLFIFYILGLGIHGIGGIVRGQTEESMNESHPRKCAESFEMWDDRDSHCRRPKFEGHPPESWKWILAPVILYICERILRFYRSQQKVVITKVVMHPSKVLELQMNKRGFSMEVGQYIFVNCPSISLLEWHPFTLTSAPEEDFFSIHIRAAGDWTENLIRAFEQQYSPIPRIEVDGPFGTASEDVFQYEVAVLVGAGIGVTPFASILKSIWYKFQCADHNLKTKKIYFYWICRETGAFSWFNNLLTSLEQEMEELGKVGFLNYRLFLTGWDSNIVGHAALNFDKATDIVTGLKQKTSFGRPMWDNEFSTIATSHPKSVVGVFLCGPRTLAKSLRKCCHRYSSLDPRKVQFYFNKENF

cells [4] = assay type: functional, cell-based
[5] = cytotoxicity toward DRD oncogenic fibroblasts, dose response, cell-based, non-viral oncogenic, luminescence (AID 1934); assay type: functional; conditions: Homo sapiens
Vero [6] = assay: host cell cytotoxicity of antiviral hits, dose response, cytotoxicity control for West Nile virus antiviral project, secondary assay (AID 1650); assay type: functional; conditions: Chlorocebus sabaeus
BJ [7] = assay: cytotoxicity toward BJ-TERT fibroblasts, dose response, cell-based, RAS-independent, luminescence (AID 1933); assay type: functional; conditions: Homo sapiens
Vero [8] = assay: cells; assay type: functional, cell-based; conditions: Chlorocebus sabaeus
BJ [9] = assay: cells; assay type: functional, cell-based; conditions: Homo sapiens
[10] = tested on: Streptococcus sp. 'group A'; assay: growth inhibition of control SK(-) GAS strain, dose response, counter-screen for streptokinase expression inhibitor project, luminescence, kanamycin, BacTiterGlo, confirmation (AID 1900); assay type: functional, organism-based
cells [11] = assay type: functional, cell-based; remark: listed apart in the source
BJ [12] = assay: cytotoxicity toward BJ-TERT-LT-ST fibroblasts, dose response, cell-based, RAS-independent, luminescence (AID 1935); assay type: functional; conditions: Homo sapiens;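 note: BJ fibroblasts immortalized with TERT plus LT and ST oncogenes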
Streptococcus = assay: Group A Streptococcus viability loss, dose response, counter-screen for streptokinase expression inhibitor project, luminescence, BacTiterGlo (AID 1915); assay type: functional, organism-based;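 note: potency for reduction of bacterial viability or growth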
[13] = inhibitors of intracellular T. cruzi replication, confirmation, NIH3T3 host cells, beta-gal luminescence (AID 2044); assay type: functional, cell-based;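 note: intracellular parasites grown in NIH/3T3 mouse fibroblasts as host cells; luminescent beta-galactosidase reporter signal from transgenic T. cruzi replicating inside host cells; inhibitors lower the luminescence signal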
[14] = cytotoxicity toward NIH3T3 fibroblasts, dose response, counter-screen, cell-based, ATP luminescence, mouse fibroblasts (AID 2010); assay type: functional;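 note: cells exposed to compound for about 90 hours before reading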
[15] = molecular target: Peroxisome proliferator-activated receptor gamma/Nuclear receptor coactivator 2 (Homo sapiens, UniProt P37231); assay type: functional;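 note: agonist potency for raising coactivator recruitment to the receptor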
Sequence of Peroxisome proliferator-activated receptor gamma/Nuclear receptor coactivator 2 (P37231 whole entry): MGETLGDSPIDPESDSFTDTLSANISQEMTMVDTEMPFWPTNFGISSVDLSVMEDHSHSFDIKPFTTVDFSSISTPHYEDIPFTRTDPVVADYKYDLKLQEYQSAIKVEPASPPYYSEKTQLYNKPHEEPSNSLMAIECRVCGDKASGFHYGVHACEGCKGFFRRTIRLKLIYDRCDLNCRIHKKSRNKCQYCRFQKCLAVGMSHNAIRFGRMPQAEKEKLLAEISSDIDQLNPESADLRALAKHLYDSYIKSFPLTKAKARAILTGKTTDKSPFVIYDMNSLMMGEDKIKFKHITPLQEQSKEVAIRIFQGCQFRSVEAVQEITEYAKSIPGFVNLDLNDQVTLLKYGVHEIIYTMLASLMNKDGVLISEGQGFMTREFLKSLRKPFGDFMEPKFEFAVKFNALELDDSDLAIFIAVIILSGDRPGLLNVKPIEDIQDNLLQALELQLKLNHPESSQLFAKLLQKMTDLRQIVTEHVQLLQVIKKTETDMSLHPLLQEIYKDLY
Sequence of Peroxisome proliferator-activated receptor gamma/Nuclear receptor coactivator 2 (Q15596 whole entry, further chain): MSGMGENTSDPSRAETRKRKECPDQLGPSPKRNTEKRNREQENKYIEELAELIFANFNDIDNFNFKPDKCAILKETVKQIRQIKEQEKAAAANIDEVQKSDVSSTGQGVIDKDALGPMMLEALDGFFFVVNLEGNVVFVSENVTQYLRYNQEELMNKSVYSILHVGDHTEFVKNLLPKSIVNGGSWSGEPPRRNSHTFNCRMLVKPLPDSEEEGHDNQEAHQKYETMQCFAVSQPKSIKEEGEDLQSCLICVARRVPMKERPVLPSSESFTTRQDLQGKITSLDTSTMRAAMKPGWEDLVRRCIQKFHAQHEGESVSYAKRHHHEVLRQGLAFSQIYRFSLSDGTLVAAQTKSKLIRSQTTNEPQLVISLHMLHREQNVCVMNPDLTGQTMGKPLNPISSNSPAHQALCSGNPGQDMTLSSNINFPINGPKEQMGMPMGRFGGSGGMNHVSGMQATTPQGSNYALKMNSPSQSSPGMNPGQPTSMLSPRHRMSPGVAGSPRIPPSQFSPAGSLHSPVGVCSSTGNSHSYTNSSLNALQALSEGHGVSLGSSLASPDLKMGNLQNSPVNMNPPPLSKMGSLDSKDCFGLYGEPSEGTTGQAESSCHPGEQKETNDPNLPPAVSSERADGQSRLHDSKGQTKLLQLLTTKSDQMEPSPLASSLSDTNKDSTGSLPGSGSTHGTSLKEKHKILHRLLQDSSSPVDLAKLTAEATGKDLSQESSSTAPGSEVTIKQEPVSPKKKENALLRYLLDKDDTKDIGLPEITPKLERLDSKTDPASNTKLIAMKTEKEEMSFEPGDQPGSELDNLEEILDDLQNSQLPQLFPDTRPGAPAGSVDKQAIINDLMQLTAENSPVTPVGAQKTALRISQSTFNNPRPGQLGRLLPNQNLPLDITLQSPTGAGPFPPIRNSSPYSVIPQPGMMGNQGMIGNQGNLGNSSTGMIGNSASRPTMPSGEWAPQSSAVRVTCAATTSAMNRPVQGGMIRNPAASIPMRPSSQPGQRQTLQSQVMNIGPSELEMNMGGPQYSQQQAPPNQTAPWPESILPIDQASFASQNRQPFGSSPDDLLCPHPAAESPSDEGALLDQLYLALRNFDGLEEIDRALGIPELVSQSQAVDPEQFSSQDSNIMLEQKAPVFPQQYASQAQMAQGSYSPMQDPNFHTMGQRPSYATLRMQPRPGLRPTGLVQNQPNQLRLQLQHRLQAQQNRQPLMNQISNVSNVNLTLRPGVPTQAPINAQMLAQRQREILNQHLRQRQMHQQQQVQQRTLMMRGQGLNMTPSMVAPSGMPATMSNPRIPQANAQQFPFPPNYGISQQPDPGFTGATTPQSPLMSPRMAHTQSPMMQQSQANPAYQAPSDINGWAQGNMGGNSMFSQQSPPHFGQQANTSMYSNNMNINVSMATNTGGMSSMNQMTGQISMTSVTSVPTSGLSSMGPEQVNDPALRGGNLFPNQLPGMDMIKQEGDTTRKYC

[16] = molecular target: Peroxisome proliferator-activated receptor gamma/Nuclear receptor coactivator 3 (Homo sapiens, UniProt P37231); assay type: functional;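 note: agonist potency for raising coactivator recruitment to the receptor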
[17] = inhibitors of firefly luciferase expression or activity, dose response, H4 neuroglioma cells, luminescence (AID 1990); assay type: functional, cell-based
[18] = inhibitors of SNCA 5'UTR-driven reporter translation, confirmation, H4 neuroglioma cells, luminescence (AID 1988); assay type: functional, cell-based
[19] = molecular target: Peroxisome proliferator-activated receptor gamma/Nuclear receptor coactivator 1 (Homo sapiens, UniProt P37231); assay type: functional;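 note: agonist potency as compounds enhance coactivator SRC-1 recruitment to PPARgamma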
Sequence of Peroxisome proliferator-activated receptor gamma/Nuclear receptor coactivator 1 (P37231 whole entry): as the sequence (P37231 whole entry) above
Sequence of Peroxisome proliferator-activated receptor gamma/Nuclear receptor coactivator 1 (Q15788 whole entry, further chain): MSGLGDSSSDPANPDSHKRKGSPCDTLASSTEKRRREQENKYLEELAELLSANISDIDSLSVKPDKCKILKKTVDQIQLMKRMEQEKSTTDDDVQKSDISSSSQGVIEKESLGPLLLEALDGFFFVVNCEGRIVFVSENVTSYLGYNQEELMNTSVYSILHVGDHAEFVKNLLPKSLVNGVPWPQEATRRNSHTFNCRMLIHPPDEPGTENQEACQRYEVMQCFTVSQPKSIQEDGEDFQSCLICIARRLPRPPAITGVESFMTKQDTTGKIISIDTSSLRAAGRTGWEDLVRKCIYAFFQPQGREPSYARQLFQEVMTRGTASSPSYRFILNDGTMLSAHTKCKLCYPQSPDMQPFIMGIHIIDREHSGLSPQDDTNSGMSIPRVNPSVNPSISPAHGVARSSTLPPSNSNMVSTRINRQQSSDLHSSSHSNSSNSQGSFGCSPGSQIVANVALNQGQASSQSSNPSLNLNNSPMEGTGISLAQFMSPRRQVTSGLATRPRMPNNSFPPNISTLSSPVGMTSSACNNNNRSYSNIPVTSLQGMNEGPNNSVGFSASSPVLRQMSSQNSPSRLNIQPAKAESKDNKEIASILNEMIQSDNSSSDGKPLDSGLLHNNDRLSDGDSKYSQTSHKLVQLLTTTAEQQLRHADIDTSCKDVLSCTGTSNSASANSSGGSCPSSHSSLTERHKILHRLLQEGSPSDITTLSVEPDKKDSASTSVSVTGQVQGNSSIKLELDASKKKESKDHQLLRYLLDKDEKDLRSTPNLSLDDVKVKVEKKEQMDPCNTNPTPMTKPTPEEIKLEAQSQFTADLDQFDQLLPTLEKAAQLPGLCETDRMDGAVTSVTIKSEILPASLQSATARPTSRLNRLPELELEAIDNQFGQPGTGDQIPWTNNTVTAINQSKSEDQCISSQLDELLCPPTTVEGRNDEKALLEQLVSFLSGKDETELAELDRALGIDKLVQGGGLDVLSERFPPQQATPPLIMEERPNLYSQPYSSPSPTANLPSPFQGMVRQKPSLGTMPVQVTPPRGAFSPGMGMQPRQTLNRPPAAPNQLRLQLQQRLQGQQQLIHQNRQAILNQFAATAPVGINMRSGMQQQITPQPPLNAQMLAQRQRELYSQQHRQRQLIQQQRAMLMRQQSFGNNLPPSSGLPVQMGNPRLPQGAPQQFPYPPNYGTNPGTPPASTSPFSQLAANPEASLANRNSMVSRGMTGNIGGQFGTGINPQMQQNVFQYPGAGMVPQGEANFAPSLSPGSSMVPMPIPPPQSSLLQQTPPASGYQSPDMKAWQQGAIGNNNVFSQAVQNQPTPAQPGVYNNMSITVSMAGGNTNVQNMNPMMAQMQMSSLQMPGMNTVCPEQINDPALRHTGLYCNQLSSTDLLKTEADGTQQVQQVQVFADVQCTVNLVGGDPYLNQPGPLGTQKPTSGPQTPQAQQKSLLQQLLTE

[20] = molecular target: Luciferin 4-monooxygenase (Photinus pyralis, UniProt P08659); assay: Counter Screen for Luciferase-based Assay Positives. [Related pubchem assays: 620, 618, 411 ]
Sequence of Luciferin 4-monooxygenase (P08659 whole entry): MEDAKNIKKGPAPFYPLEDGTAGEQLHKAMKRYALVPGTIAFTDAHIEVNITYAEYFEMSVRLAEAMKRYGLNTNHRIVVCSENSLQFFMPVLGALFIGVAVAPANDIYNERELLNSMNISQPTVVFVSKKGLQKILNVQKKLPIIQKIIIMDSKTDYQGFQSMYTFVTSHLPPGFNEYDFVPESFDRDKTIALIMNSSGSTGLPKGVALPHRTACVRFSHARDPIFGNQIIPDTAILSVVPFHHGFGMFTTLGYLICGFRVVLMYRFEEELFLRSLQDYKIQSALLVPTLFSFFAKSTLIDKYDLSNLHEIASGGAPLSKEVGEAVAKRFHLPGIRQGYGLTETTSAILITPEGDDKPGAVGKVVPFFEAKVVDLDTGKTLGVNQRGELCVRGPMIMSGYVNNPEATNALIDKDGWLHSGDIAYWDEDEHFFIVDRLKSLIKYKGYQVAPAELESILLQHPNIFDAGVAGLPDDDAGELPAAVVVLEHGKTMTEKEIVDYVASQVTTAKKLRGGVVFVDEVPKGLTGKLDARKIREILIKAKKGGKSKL

HT-1080 = assay: cytotoxicity in HT1080 fibrosarcoma cells, cell-based, fluorescence readout (AID 620); assay type: functional; conditions: Homo sapiens
[21] = A Cell Based Secondary Assay To Explore Cytotoxicity of Compounds that Sensitize Mycobacterium Tuberculosis to Beta-Lactam Antibiotics.; assay type: functional
cells [22] = assay type: functional, cell-based; remark: listed apart in the source
[23] = molecular target: T3, Nuclear receptor subfamily 0 group B member 1 (Homo sapiens, UniProt P51843); assay type: functional, cell-based;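 note: HEK293T cells transfected with SF-1 and DAX-1 plus StAR promoter luciferase reporter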
T3 sequence (P51843 whole entry): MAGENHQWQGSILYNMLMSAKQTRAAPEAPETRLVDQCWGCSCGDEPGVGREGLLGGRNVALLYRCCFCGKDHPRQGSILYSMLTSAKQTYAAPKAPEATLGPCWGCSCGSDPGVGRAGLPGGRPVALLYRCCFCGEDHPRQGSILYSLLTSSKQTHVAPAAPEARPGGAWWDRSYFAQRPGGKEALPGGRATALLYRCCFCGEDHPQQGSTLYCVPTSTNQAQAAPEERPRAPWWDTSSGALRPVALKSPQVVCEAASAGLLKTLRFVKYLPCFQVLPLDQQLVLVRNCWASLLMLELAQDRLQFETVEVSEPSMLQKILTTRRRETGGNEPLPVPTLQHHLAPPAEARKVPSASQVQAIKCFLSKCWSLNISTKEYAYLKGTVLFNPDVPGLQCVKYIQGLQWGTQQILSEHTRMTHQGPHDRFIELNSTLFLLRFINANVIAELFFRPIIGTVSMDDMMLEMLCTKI

[24] = LGR2 antagonists, dose response, cell-based, HEK293, CRE-luciferase reporter, cherry pick, set 2 (AID 743343); assay type: functional;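 note: transfected cells were stimulated with diluted bursicon conditioned medium after compound addition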
[25] = MC4R antagonists, dose response, counter-screen for LGR2 antagonist project, cell-based, plate reader, cherry pick (AID 743444); assay type: functional;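 note: transfected HEK 293 cells stimulated with alpha-MSH peptide; potency of inhibitors of the alpha-MSH evoked signal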
[26] = Luminescence-based dose response cell-based high throughput screening assay for cytotoxic compounds using the IEC-6 intestinal epithelial cell line. [Related pubchem assays: 1858 (Summary AID.), 1825 (Counterscreen.), 1907 (Confirmation screen.)]; assay type: functional
BJ [27] = assay: cytotoxicity toward Ras-transformed BJeLR fibroblasts, dose response, cell-based, alamar blue fluorescence, cherrypicked samples (AID 2631); assay type: functional; conditions: Homo sapiens;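 note: confirmatory dose-response assay in RAS-dependent BJ fibroblasts engineered with TERT, LT and ST, with cytotoxicity read by fluorescence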
[28] = cytotoxicity in HEK-293T cells, dose response, cytotoxicity control for TCR NF-kB inhibitor project, luminescence, T-cell screen hits (AID 489026); assay type: functional, cell-based;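 note: cells exposed to compound about 14 hours before the viability readout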
Vero [29] = assay: cells; assay type: functional; conditions: Chlorocebus sabaeus
[30] = inhibitors of Bluetongue virus cytopathic effect, confirmation, arbovirus, BSR cells (AID 1250); assay type: functional;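 note: protection from viral cytopathic effect measured as cell viability by ATP luminescence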
Cytochrome P450 2C19 = Cytochrome P450 2C19 (Homo sapiens, UniProt P33261); assay: Cytochrome panel assay with activity outcomes. Panel member name: p450-cyp2c19 Compounds with AC50 equal or less than 10 uM are considered active; assay type: functional; conditions: read-out: AC50
[31] = cytotoxicity in HEK-293T cells, dose response, cytotoxicity control for BCR NF-kB inhibitor project, luminescence, B-cell screen hits (AID 489021); assay type: functional, cell-based;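 note: HEK-293T cells carrying an NF-kB luciferase reporter; cells exposed to compound for about 14 hours before viability readout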
[32] = Luminescence Cell-Based Dose Response HTS to Identify Inhibitors of 5'UTR Stem-Loop Driven Prion Protein mRNA Translation in H4 Neuroglioblastoma Cells. [Related pubchem assays: 1827 (Project Summary), 1813 (Primary HTS)]; assay type: functional
INS1 = assay: beta cell apoptosis inhibitors, cytokine rescue, dose response, luminescence, retest (AID 449756); assay type: functional, cell-based; conditions: Rattus norvegicus;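 note: cell death triggered by IL-1 beta plus TNF-alpha plus IFN-gamma mixture; protective hits raise ATP signal compared with cytokine alone wells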
[33] = growth suppression of beta-catenin-knockout colon cells, dose response, cell-based, HCT116, human colon tumor (AID 1045); assay type: functional;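 note: HCT116 colon tumor cells with beta catenin knocked out; cells exposed to compound for 60 hours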
[34] = molecular target: T4, Mannose-6-phosphate isomerase (Homo sapiens, UniProt P34949); assay: inhibitors of human PMI, primary screen, biochemical, fluorescence intensity, coupled assay (AID 1209)
T4 sequence (P34949 whole entry): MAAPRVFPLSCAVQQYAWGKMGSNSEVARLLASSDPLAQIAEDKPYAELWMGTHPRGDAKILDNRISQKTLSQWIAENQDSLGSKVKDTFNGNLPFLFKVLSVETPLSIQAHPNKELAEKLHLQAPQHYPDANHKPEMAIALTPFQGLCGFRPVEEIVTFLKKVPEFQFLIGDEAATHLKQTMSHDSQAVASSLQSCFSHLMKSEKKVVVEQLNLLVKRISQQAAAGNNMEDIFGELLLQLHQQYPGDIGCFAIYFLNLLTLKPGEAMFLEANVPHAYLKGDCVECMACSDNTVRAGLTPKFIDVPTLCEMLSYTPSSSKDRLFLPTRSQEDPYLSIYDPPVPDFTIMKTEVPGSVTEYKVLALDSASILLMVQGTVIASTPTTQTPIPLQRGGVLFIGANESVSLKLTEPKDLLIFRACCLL

[35] = molecular target: T4, Mannose-6-phosphate isomerase; assay: human PMI inhibitors, high substrate, primary screen, biochemical, fluorescence intensity, high mannose 6-phosphate (AID 1220)
[36] = growth suppression of PTEN-null colon cells, dose response, cell-based, HCT116 PTEN knockout (AID 1047); assay type: functional;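 note: HCT116 colon tumor cells with PTEN knocked out; cells exposed to compound for 60 hours before readout; potency for loss of cell viability measured by luminescence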

O=C1C(Cl)=C(Cl)C(=O)N1c1ccc(Cl)c(Cl)c1
IC50 (Bcl-2-related protein A1 [1]): 1.15 µM (active)
IC50 (Bcl-2-related protein A1 [2]): 0.77 µM (active)
IC50 [3]: > 100 µM (not active)

[O-][S+]1c2ccccc2Nc2ccccc21
IC50 (NADPH oxidase 1): > 20 µM (not active)

CN1CCN(C2=C(Cl)C(=O)N(c3ccc(Cl)cc3Cl)C2=O)CC1
IC50 (Bcl-2-related protein A1 [1]): 2.62 µM (active)
IC50 (Bcl-2-related protein A1 [2]): 1.36 µM (active)
IC50 [3]: > 100 µM (not active)

Oc1nc(-c2ccccn2)nc2sc(-c3ccccc3)cc12
EC50 (cells [4]): 4.87 µM (active)
EC50 [5]: 121 µM (inconclusive)
CC50 (Vero [6]): 2.08 µM (active)
EC50 (BJ [7]): 17.6 µM (active)
IC50 (Vero [8]): 7 µM (active)
EC50 (BJ [9]): 16.2 µM (active)
EC50 [10]: 0.571 µM (active)
EC50 (cells [11]): 16.6 µM (active)
EC50 (BJ [12]): 15.6 µM (inconclusive)
EC50 (Streptococcus): 13.2 µM (active)
EC50 [13]: 0.216 µM (active)
EC50 [14]: 1.27 µM (active)

O=C(C1=C[C@@H](c2ccc(Br)cc2)C[C@@H](OCCCCO)O1)N1CCN(Cc2ccc3c(c2)OCO3)CC1
EC50 [15]: > 79.4 µM (not active)
EC50 [16]: > 79.4 µM (not active)
EC50 [17]: 16.3 µM (active)
EC50 [18]: 20.5 µM (active)
EC50 [19]: > 79.4 µM (not active)

Cc1ccccc1NC(=O)c1cnc2ccccn2c1=O
EC50 [20]: 46.4 µM (active)
EC50 (HT-1080): > 50 µM (not active)

CS(=O)(=O)N(Cc1ccccc1)c1ccc(C(=O)N2CCN(c3cccc(Cl)c3)CC2)cc1
CC50 [21]: > 40 µM (active)

CC(C)Nc1ncnc2c1cnn2-c1ccc(Cl)cc1
IC50 (cells [22]): > 67.5 µM (inactive)
EC50 [20]: 15.3 µM (active)
IC50 [23]: > 67.5 µM (inactive)
EC50 (HT-1080): > 50 µM (not active)
AC50 [24]: 11.9 µM (active)
AC50 [25]: 13.3 µM (active)

CCOCCOC(=O)c1[nH]c2c(c1C)C(=O)CC(c1ccccc1)C2 (centres undefined)
EC50 [5]: 1.29 µM (active)
IC50 [26]: 0.521 µM (active)
EC50 (BJ [7]): 0.851 µM (inconclusive)
EC50 (BJ [27]): < 0.104 µM (inconclusive)
EC50 (BJ [9]): 12.6 µM (active)
EC50 (BJ [12]): 0.756 µM (active)
IC50 [28]: > 80 µM (inactive)

CCc1ccc(CC2S/C(=C(\C#N)C(C)=O)NC2=O)cc1 (centres undefined)
CC50 (Vero [29]): > 25 µM (active)
IC50 (Vero [8]): 13.2 µM (active)
IC50 [30]: 27.9 µM (active)

O=c1oc(-c2cccs2)nc2ccc(Br)cc12
AC50 (Cytochrome P450 2C19): 22.4 µM (inconclusive)
IC50 [30]: 28.9 µM (active)

CC1CCc2c(sc3nc(SCC(=O)NCc4ccco4)nc(N)c23)C1 (centres undefined)
EC50 [15]: > 79.4 µM (not active)
EC50 [16]: > 79.4 µM (not active)
EC50 [19]: > 79.4 µM (not active)

CC(=O)N1c2ccccc2S(=O)(=O)c2ccccc21
IC50 (NADPH oxidase 1): > 20 µM (not active)

COc1ccc(Cc2nc(-c3ccc(NC(=O)c4cccnc4)cc3)no2)cc1
EC50 [5]: > 150 µM (not active)
IC50 [26]: 0.649 µM (active)
IC50 [31]: > 80 µM (inactive)
EC50 (BJ [7]): > 150 µM (inconclusive)
EC50 (BJ [27]): 58.4 µM (active)
EC50 [17]: 11.2 µM (active)
EC50 (BJ [9]): 2.38 µM (active)
EC50 [32]: 8.73 µM (active)
AC50 (INS1): < 0.195 µM (active)
EC50 (BJ [12]): > 150 µM (not active)
EC50 [18]: 5.99 µM (active)

O=C(NCc1ccco1)c1cccn2c(=O)c3cc4ccccc4cc3nc12
EC50 [33]: 10.7 µM (active)
IC50 [34]: > 50 µM (not active)
IC50 [35]: > 50 µM (not active)
EC50 [36]: 12.4 µM (active)
